Where two headings read alike, the source gives them in different places. Some results are limits rather than exact numbers.

Results on 13 compounds are retold here after patent US11660311B2, “Cyclic dinucleotides as anticancer agents” (priority 2017, dated 2023).

Test [1] concerns IRF pathway in THP1-Dual STING reporter cells. As to the kind of experiment: STING THP1 Reporter Assay, IRF pathway (secreted Lucia luciferase). The test is classed as cell-based, human. The note with it: 100% = 100 μM cGAMP. An excerpt:
(§1) THP1-Dual™ cells were derived from the human THP-1 monocyte cell line by stable integration of two inducible reporter constructs. To this end, THP1-Dual™ cells allow the simultaneous study of the NF-κB pathway, by monitoring the activity of SEAP, and the IRF pathway by assessing the activity of a secreted luciferase (Lucia). Both reporter proteins are readily measurable in the cell culture supernatant when using QUANTI-Blue™, a SEAP detection reagent, and QUANTI-Luc™, a luciferase detection reagent.
(§2) THP1-Dual™ cells induce the activation of NF-κB in response to STING agonists. They also trigger the IRF pathway upon stimulation with STING agonists, such as cGAMP. Here, the THP-1-Dual cells were used to assess STING binders for function on the cellular level.
(§3) Serial dilutions of compounds in DMSO were added to low volume 384 well plates at 100 nl/well using an ECHO acoustic dispenser (Labcyte, model 550) to achieve final starting concentration of 100 μM in cell suspension. […] One column of the plate was reserved for treatment with cGAMP at 100 μM for 100% activation calculation and one column for no treatment (DMSO only) for baseline activation. Plates were then incubated in 37° C. incubator at 5% CO2 for 20 hours.
(§4) In the SEAP assay, 5 μl of 2× QuantiBlue (Invivogen, cat #Rep-qb2) is added to 384 well black plates seeded with THP1 cells and incubated at 37° C. for 2 hours. Plates were read on the Envision (Perkin Elmer) at 620 nm wavelength (OD620). In the luciferase assay, 5 μl of Quantiluc (Invivogen, Rep-qlc2) is added to white 384 well plates seeded with THP1 cells and read at 5 minutes on the Envision (Perkin Elmer) using a luminescence protocol (RLU). For both cell lines, 100% activation was determined by value (RLU) of THP-1 Dual STING cells stimulated with 100 μM cGAMP (Invivogen, cat #TLRL-NACGA23-5).

For test [2], the system named is NF-κB pathway in THP1-Dual STING reporter cells. As to the kind of experiment: STING THP1 Reporter Assay, NF-κB pathway (SEAP). The test is classed as cell-based, human. The note with it: 100% = 100 μM cGAMP.
Source text: as §1, §2, §3, §4

The target of test [3] is T1, STING WT: His-TVMV-S-hSTING(155-341)-H232R (Homo sapiens, UniProt Q86WV6, H232R).
T1 construct: STING WT: His-TVMV-S-hSTING(155-341)-H232R
T1 sequence (Q86WV6 with tags, fused parts or gaps H232R): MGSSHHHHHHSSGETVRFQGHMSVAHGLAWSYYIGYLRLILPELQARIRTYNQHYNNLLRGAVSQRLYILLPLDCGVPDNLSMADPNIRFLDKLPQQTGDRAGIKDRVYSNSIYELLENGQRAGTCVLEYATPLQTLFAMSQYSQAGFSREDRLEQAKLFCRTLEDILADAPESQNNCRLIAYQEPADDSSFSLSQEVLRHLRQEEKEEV
As to the kind of experiment: STING HTRF Binding Assay, STING WT. The following applies: 20 nM His-tagged STING cytoplasmic domain, 200 nM fluorescein-labeled cGAMP analog probe, one hour; read-out: HTRF Binding Assays IC50 (μM) STING WT. Here is the method:
(§5) A time resolved FRET-based competition binding assay was used to assess test article binding to STING WT and STING AQ. His-tagged STING cytoplasmic domain (WT or AQ) at a concentration of 20 nM was incubated with 2.5 nM Tb-labeled anti-His antibody, test compound, and fluorescein-labeled cGAMP analog probe (BioLog cat. no. C195) at a concentration of 200 nM (STING WT) or 40 nM (STING AQ) in PBS containing 0.005% Tween-20 and 0.1% BSA for one hour. Fluorescence at 495 nm and 520 nm was measured using an EnVision microplate reader to quantify FRET between Tb-labeled anti-His antibody and fluorescein-labeled probe. Background was defined as the signal obtained in the absence of STING protein, and background subtracted FRET ratios were normalized to the maximum signal obtained in the absence of test compound. These values were converted to a percent inhibition. Percent inhibition was determined for test compounds at 11 concentrations. The IC50, defined as the concentration of competing test compound needed to reduce specific binding of the probe by 50%, was calculated using the 4 parameter logistic equation to fit the data

For test [4], the target named is T2, STING AQ: His-TVMV-S-hSTING(155-341)-G230A-R293Q (Homo sapiens, UniProt Q86WV6, G230A/H232R/R293Q).
T2 construct: STING AQ: His-TVMV-S-hSTING(155-341)-G230A-R293Q
T2 sequence (Q86WV6 with tags, fused parts or gaps G230A/H232R/R293Q): as the sequence (Q86WV6 with tags, fused parts or gaps H232R) above, with G99A, R162Q counted along it
As to the kind of experiment: STING HTRF Binding Assay, STING AQ. The note with it: 20 nM His-tagged STING cytoplasmic domain, 40 nM fluorescein-labeled cGAMP analog probe, one hour; read-out: HTRF Binding Assays IC50 (μM) STING AQ. On the procedure:
as §5

Setting [5] is: Homo sapiens, THP1-Dual, 20 h, THP1-Dual cells, 10% human plasma, 20 hours, luciferase, read-out: THP1 Reporter Assays EC50 (μM) IRF3.
Setting [6] is: Homo sapiens, THP1-Dual, 20 h, THP1-Dual cells, 10% human plasma, 20 hours, SEAP, read-out: THP1 Reporter Assays EC50 (μM) NFkB.
[7] abbreviates: read-out: THP1 Reporter Assays EC50 (μM) IRF3, THP1-Dual cells, 10% human plasma, 20 hours, luciferase.
The mark [8] stands for this setting: THP1-Dual cells, 10% human plasma, 20 hours, SEAP, read-out: THP1 Reporter Assays EC50 (μM) NFkB.
Where [9] appears, read: Homo sapiens, THP1-Dual, 20 h, read-out: THP1 Reporter Assays EC50 (μM) IRF3, THP1-Dual cells, 10% human plasma, 20 hours, luciferase.
Setting [10] is: Homo sapiens, THP1-Dual, 20 h, read-out: THP1 Reporter Assays EC50 (μM) NFkB, THP1-Dual cells, 10% human plasma, 20 hours, SEAP.
[11] abbreviates: THP1-Dual cells, 10% human plasma, 20 hours, luciferase, read-out: THP1 Reporter Assays EC50 (μM) IRF3.

Take `Nc1nc2c(ncn2[C@@H]2O[C@@H]3COP(=O)(O)O[C@H]4[C@@H](O)[C@H](n5cnc6c(N)ncnc65)O[C@@H]4COP(=O)(S)O[C@H]3[C@H]2O)c(=O)[nH]1` (stereo partly drawn) [Example 15, (1S,8R,9R,10S,15R,17R,18R)-8-(2-amino-6-oxo-6,9-dihydro-1H-purin-9-yl)-17-(6-amino-9H-purin-9-yl)-3,9,18-trihydroxy-12-sulfanyl-2,4,7,11,13,16-hexaoxa-3λ^5,12λ^5-diphosphatricyclo[13.3.0.0^6,10]octadecane-3,12-dione]: the EC50 in test [1] (setting [5]) and in test [2] (setting [6]) was greater than 100 µM in each case. Moreover, the IC50 in test [3] worked out at 9.55 µM; in test [4] it was 0.83 µM.

Take `O=P1(O)OC[C@H]2O[C@@H](n3cnc4c3ncn3ccnc43)[C@H](O)[C@@H]2OP(=O)(O)OC[C@H]2O[C@@H](n3cnc4c3ncn3ccnc43)[C@H](O)[C@@H]2O1` [Example 19]: the EC50 in test [1] (setting [5]) and in test [2] (setting [6]) was greater than 100 µM each time. Further, the IC50 is 28.6 µM in test [3] and 0.65 µM in test [4].

Turning to `Nc1ncnc2c1ncn2[C@@H]1O[C@@H]2COP(=O)(S)O[C@H]3[C@@H](F)[C@H](n4cnc5c4ncn4ncnc54)O[C@@H]3COP(=O)(S)O[C@H]2[C@H]1F` (single isomer, unassigned) [Example 12-3], the EC50 in test [1] (setting [7]) was found to be 0.27 µM; in test [2] (setting [8]) it was 2.65 µM. Besides, the IC50 was found to be 0.02 µM in test [3] and 0.003 µM in test [4].

Turning to `Nc1ncnc2c1ncn2[C@@H]1O[C@@H]2COP(=O)(S)O[C@H]3[C@@H](O)[C@H](n4nnc5c([N+](=O)[O-])cccc54)O[C@@H]3COP(=O)(O)O[C@H]2[C@H]1F` (single isomer, unassigned) [Example 13-2], the EC50 in test [1] (setting [7]) is greater than 100 µM; in test [2] (read-out: THP1 Reporter Assays EC50 (μM) NFkB, THP1-Dual cells, 10% human plasma, 20 hours, SEAP) it was greater than 100 µM. The IC50 in test [3] worked out at 5.49 µM; in test [4], 0.45 µM.

For `Nc1ncnc2c1ncn2[C@@H]1O[C@@H]2COP(=O)(S)O[C@H]3[C@@H](O)[C@H](n4nnc5c([N+](=O)[O-])cccc54)O[C@@H]3COP(=O)(O)O[C@H]2[C@H]1F` (single isomer, unassigned) [Example 13-1], the EC50 in test [1] (setting [9]) and in test [2] (setting [10]) was greater than 100 µM throughout. Also, the IC50 in test [3] was 8.45 µM; in test [4], 1.44 µM.

In the case of `NC(=O)c1cccc2c1nnn2[C@@H]1O[C@@H]2COP(=O)(O)O[C@H]3[C@@H](F)[C@H](n4cnc5c(N)ncnc54)O[C@@H]3COP(=O)(S)O[C@H]2[C@H]1F` (single isomer, unassigned) [Example 8-1], the EC50 in test [1] (setting [5]) and in test [2] (setting [6]) was greater than 100 µM each time. The IC50 in test [3] was determined as 64.6 µM; in test [4], 1.75 µM.

With `Nc1ncnc2c1ncn2[C@@H]1O[C@@H]2COP(=O)(S)O[C@H]3[C@@H](O)[C@H](n4cnc5c(=O)[nH]c6nccn6c54)O[C@@H]3COP(=O)(S)O[C@H]2[C@H]1F` (mixture of isomers) [Example 5, (1S,6R,8R,9R,10R,15R,17R,18R)-8-(6-amino-9H-purin-9-yl)-9-fluoro-18-hydroxy-17-{4-oxo-1H,4H,5H-imidazo[2,1-b]purin-1-yl}-3,12-disulfanyl-2,4,7,11,13,16-hexaoxa-3λ^5,12λ^5-diphosphatricyclo[13.3.0.0^6,10]octadecane-3,12-dione], the EC50 in test [1] (setting [9]) was determined as 0.49 µM; in test [2] (setting [10]) it was 1.35 µM. The IC50 was found to be 0.004 µM in test [3] and 0.001 µM in test [4].

Consider `Nc1ncnc2c1ncn2[C@@H]1O[C@@H]2COP(=O)(S)O[C@H]3[C@@H](O)[C@H](n4cnc5c(=O)n6ccnc6[nH]c54)O[C@@H]3COP(=O)(S)O[C@H]2[C@H]1F` (single isomer, unassigned) [Example 1-2], for which the values for the EC50 in test [1] (setting [11]) and in test [2] (setting [8]) were 2.69 µM and 5.35 µM, respectively. In addition, the IC50 in test [3] was determined as 0.07 µM; in test [4], 0.01 µM.

Consider `NC(=O)c1cc([C@@H]2O[C@@H]3COP(=O)(O)O[C@H]4[C@@H](F)[C@H](n5cnc6c(N)ncnc65)O[C@@H]4COP(=O)(S)O[C@H]3[C@H]2O)ccn1` (stereo partly drawn) [Example 14, 4-[(1R,6R,8S,9S,10S,15R,17R,18R)-17-(6-amino-9H-purin-9-yl)-18-fluoro-3,9-dihydroxy-3,12-dioxo-12-sulfanyl-2,4,7,11,13,16-hexaoxa-3λ^5,12λ^5-diphosphatricyclo[13.3.0.0^6,10]octadecan-8-yl]pyridine-2-carboxamide], for which the EC50 in test [1] (setting [5]) and in test [2] (setting [6]) was greater than 100 µM throughout. Also, the IC50 was greater than 100 µM in test [3] and 1.14 µM in test [4].

Regarding `NC(=O)c1cccc2c1nnn2[C@@H]1O[C@@H]2COP(=O)(S)O[C@H]3[C@@H](F)[C@H](n4cnc5c(N)ncnc54)O[C@@H]3COP(=O)(S)O[C@H]2[C@H]1F` (single isomer, unassigned) [Example 4-1], the EC50 in test [1] (setting [11]) and in test [2] (setting [8]) was greater than 100 µM throughout. In addition, the IC50 was greater than 100 µM in test [3] and 17.8 µM in test [4].

In the case of `NC(=O)c1cccc2c1nnn2[C@@H]1O[C@@H]2COP(=O)(S)O[C@H]3[C@@H](F)[C@H](n4cnc5c(N)ncnc54)O[C@@H]3COP(=O)(S)O[C@H]2[C@H]1F` (single isomer, unassigned) [Example 4-4], the EC50 in test [1] (setting [11]) was 81.1 µM; in test [2] (setting [8]), 92.4 µM. In addition, the IC50 in test [3] came to 0.78 µM; in test [4], 0.02 µM.

With `NC(=O)c1cccc2c1nnn2[C@@H]1O[C@@H]2COP(=O)(O)O[C@H]3[C@@H](F)[C@H](n4cnc5c(N)ncnc54)O[C@@H]3COP(=O)(O)O[C@H]2[C@H]1F` [Example 7, 1-[(1R,6R,8R,9R,10R,15R,17R,18R)-17-(6-amino-9H-purin-9-yl)-9,18-difluoro-3,12-dihydroxy-3,12-dioxo-2,4,7,11,13,16-hexaoxa-3λ^5,12λ^5-diphosphatricyclo[13.3.0.0^6,10]octadecan-8-yl]-1H-1,2,3-benzotriazole-4-carboxamide], the EC50 in test [1] (setting [5]) and in test [2] (setting [10]) was greater than 100 µM in each case. The IC50 is 11.9 µM in test [3] and 0.31 µM in test [4].

Take `O=c1[nH]cnc2c1ncn2[C@@H]1O[C@@H]2COP(=O)(O)O[C@H]3[C@@H](O)[C@H](n4cnc5c4ncn4ccnc54)O[C@@H]3COP(=O)(O)O[C@H]2[C@H]1O` [Example 18]: the EC50 in test [1] (setting [5]) and in test [2] (setting [6]) was greater than 100 µM in each case. Further, the IC50 in test [3] worked out at 25.3 µM; in test [4], 0.49 µM.
